Several values for one entry are separate records, joined by “and”; a condition that tells them apart may be missing. Equal values may be shown once.
Experiments:
CHO cells [1] = experiment: Evaluation of intracellular metabolism by TLC; assay type: in vitro ADME, hamster; details: 10 μM
Procedure: (§1) Firstly, the CHO cells were seeded into each well of a 24-well plate at 2×10^4 cells/well, and cultured in a Ham's F12(+) medium at 37° C. for one day. After that, medium exchange to a medium in which 0.1% BSA and 10 mM HEPES are added into a Ham's F12(−) medium which is a serum-free medium was performed, and the culture was further performed at 37° C. for 18 hours, then into which the compound 9 (10 μM) was added. After the addition, the resultant mixture was cultured at 37° C. for 1, 2, 6, 24, or 48 hours, and subjected to an assay. Further, as a negative control, the same experiment was performed with the NBD-C6-ceramide. Herein, ceramide, sphingosine, and the like are contained in the serum, and the incorporation and metabolism of these substances are constantly in progress. Therefore, in this experiment, firstly, the cells were cultured for 18 hours in a serum-free medium, and the incorporation and metabolism of a serum-derived compound were decreased, then the test compound was added, and thus an experimental system was constructed such that the pure incorporation and metabolism of the test compound itself can be measured.
As the assay, firstly, the incorporation of the ceramide derivative (compound 9) into a cell was evaluated. Specifically, cells that had been cultured for a predetermined time in the presence of the compound were washed twice with HBSS (Hank's Balanced Salt Solution: pH 7.4) containing 0.1% BSA and 10 mM HEPES, and then using a cell scraper and 250 μL of HBSS, the cells were detached from the wells. Into the cell extract thus obtained, 500 μL of chloroform, 500 μL of methanol, and 250 μL of water were added, and the cell extract was prepared in two-layer form of an organic layer and an aqueous layer. Further, since the ceramide derivative and other major sphingolipids are compounds that migrate to the organic layer, the cell extract in two-layer form was centrifuged for 10 minutes under the conditions of 3000 rpm at 4° C., and thus only the organic layer was isolated.
On the other hand, as another assay, the metabolism of the ceramide derivative (compound 9) was evaluated. Specifically, 20 μL of the organic layer sample thus obtained above was spotted on a TLC plate, and developed with a development solvent (1-butanol:acetic acid:water=3:1:1), then the intracellular metabolism of the sample was evaluated by using an image analyzer (LAS1000).
Further, by using a free software (Image J), the abundance of each metabolite was converted into a numerical value. The results are shown in E) of FIG. 2 (NBD-C6-ceramide (negative control)), and F) of FIG. 2 (compound 9). In the meantime, the numerical value of each amount of C16-glucosylceramide-NBD-like molecules and C16-sphingomyelin-NBD-like molecules was determined from the mobility in the TLC.

[2] = test system: Golgi apparatus in CHO cells; details: 30 minutes after addition, or two hours later when metabolized; J Cell Biol. 1985; cited from earlier work
CHO cells [3] = experiment: Evaluation of cytotoxicity (alteration of cell shape); assay type: cell-based, hamster; details: 10 μM, serum-free medium, cultured one day
Procedure: As to the compound 9 synthesized in the above, the cytotoxicity was evaluated as the effect on the change in cell morphology.
As the cultured cells, cells obtained by the culture of CHO cells, which is a cell strain derived from the ovary of hamster, in a Ham's F12 medium were used.
Firstly, the CHO cells were seeded into each well of a 24-well plate at 2×10^4 cells/well, and cultured in a Ham's F12(+) medium at 37° C. for one day. After that, in order to eliminate the influence of ceramide, sphingosine, and the like, medium exchange to a medium in which 0.1% BSA and 10 mM HEPES are added into a Ham's F12(−) medium which is a serum-free medium was performed, and in the presence of the compound 9 (10 μM), the culture was further performed for one day. Further, as a negative control, the same experiment was performed with the a NBD-C6-ceramide described in Non Patent Literature 1.

CHO cells [4] = experiment: Evaluation of incorporation into cell (fluorescence of organic layer extract); assay type: cell-based, hamster; details: 10 μM, 1, 2, 6, 24 or 48 hours at 37° C.
Procedure: as §1, with “Herein, ceramide, sphingosine, and the like are contained in the serum, and the incorporation and metabolism of these substances are constantly in progress.” left out
As the assay, firstly, the incorporation of the ceramide derivative (compound 9) into a cell was evaluated. […]
Subsequently, the obtained organic layer sample was added into a 96-well plate, and the fluorescence emission of the ceramide derivative was detected by using an image analyzer (LAS1000, manufactured by FUJIFILM Corporation). […]

[5] = test system: Golgi apparatus in CHO cells; experiment: Changes in localization to the Golgi apparatus over time (fluorescence observation); assay type: cell-based, hamster; details: 1 μM, 1, 2, 6, 24 or 48 hours at 37° C.
Procedure: Subsequently, it was evaluated whether or not the localization of the compound 9 in the Golgi apparatus can be maintained over a long period of time. Specifically, by the method similar to that described above, the compound 9 or the NBD-C6-ceramide (negative control) (each of both is in 1 μM) was added, then the resultant mixture was cultured at 37° C. for 1, 2, 6, 24, or 48 hours, and the fluorescence (green) derived from the compound was observed.
The upper part of FIG. 4 is a set of pictures showing the results of the observation for the NBD-C6-ceramide (negative control), the pictures were taken by using a photomultiplier tube PMT:430. The middle part of FIG. 4 is a set of pictures showing the results of the observation for the compound 9, the pictures were taken by using a photomultiplier tube PMT:430. The lower part of FIG. 4 is a set of pictures showing the results of the observation for the compound. 9, the pictures were taken by using a photomultiplier tube PMT:500. At this point, the expression of “430” or “500” means detection sensitivity (size of the energy required to detect the emission derived from a compound), and the smaller the value, the higher the sensitivity. […]

cell = experiment: Staining of the Golgi apparatus with conventional probe (investigation by the present inventors); assay type: cell-based; details: cytotoxic effect
Procedure: A NBD-C6-ceramide has a cytotoxic effect, therefore, kills a cell itself within 24 hours from the incorporation into the cell, and thus the cell observation cannot be continued anymore. Further, an endogenous ceramide is metabolized into a glucosylceramide by being added with an oligosaccharide in the Golgi apparatus, or metabolized into sphingomyelin by receiving the transfer of phosphocholine from phosphatidylcholine, as a result, the metabolite is sent to cell membrane and becomes a component of the cell membrane. The NBD-C6-ceramide is, in the same manner as in the endogenous ceramide, metabolized to glucosylceramide or sphingomyelin in the Golgi apparatus, and the metabolite is transported to cell membrane from the Golgi in a few hours, therefore, the continuous staining is also difficult in this respect.

CHO cells [6] = experiment: Evaluation of cytotoxicity (changes in cell number); assay type: cell-based, hamster; details: 10 μM; for cell number after addition (24 hours) relative to before addition: before addition = 100%, no additives 170 ± 51%; for cell number after addition (24 hours): serum-free medium, before addition 12,600 cells/well
Procedure: Subsequently, as to the compound 9 synthesized in the above, the cytotoxicity was evaluated as the effect on the change in cell number.
Firstly, the CHO cells were seeded into each well of a 24-well plate at 1×10^4 cells/well, and cultured in a Ham's F12(+) medium at 37° C. for one day. The cell number one day after the culture was 1.26×10^4 cells/well. After that, medium exchange to a medium in which 0.1% BSA and 10 mM HEPES are added into a Ham's F12(−) medium which is a serum-free medium was performed, and in the presence of the compound 9 (10 μM), the culture was further performed for one day. Further, as a negative control, the same experiment was performed with the NBD-C6-ceramide described in Non Patent Literature 1. In addition, the same experiment was also performed for the case of no additives.

[7] = test system: Golgi apparatus in CHO cells; experiment: Evaluation of localization to the Golgi apparatus (co-staining with BODIPY-TR-Ceramide, confocal laser scanning microscope); assay type: cell-based, hamster; details: 1 μM, 1.5 hours, then BODIPY-TR-Ceramide 5 μM 30 minutes
Procedure: It was evaluated whether or not the localization of the compound 9 into a cell is really due to the localization to the Golgi apparatus. Specifically, BODIPY-TR-Ceramide (Cat D-7540 Red manufactured by Molecular Probes), which is another Golgi marker known to be difficult to be metabolized, was added together with the compound 9 into a cell, and the observation was performed by using a confocal laser scanning microscope.
Firstly, the CHO cells were seeded into each well of a 24-well plate at 0.5×10^4 cells/well, and cultured in a Ham's F12(+) medium at 37° C. for two days. […] After completion of the culture, the cells were washed twice in the same manner as described above, and then the fluorescence emission from the cells was observed. […] In addition, the time course of the cell culture and compound addition is the one recommended by data sheets or previous reports as the time course in which BODIPY-TR-Ceramide can be detected more sensitively. The observation was performed by using a confocal laser scanning microscope, and the measurement of the fluorescence emission from the BODIPY-TR-Ceramide was performed at the maximum excitation wavelength of 598 nm, and the maximum fluorescence wavelength of 617 nm, to measure the “red”. […]

fraction remaining as it is without being metabolized in 48 hours (CHO cells [1]; 48 hours)	SMILES	fraction that became a metabolite in 6 hours (CHO cells [1])	amount of compound after metabolism in 24 hours (CHO cells [1]; 24 hours)	fraction metabolized in 48 hours (CHO cells [1]; 48 hours)	retention in the Golgi apparatus after addition into a cell [2]	alteration of cell shape (roundation) (CHO cells [3])	amount incorporated into a cell with the lapse of time (CHO cells [4])	fluorescence (emission) intensity in cells with the lapse of time [5]	time from incorporation into the cell until the cell is killed (cell)	cell number after addition (24 hours) relative to before addition (CHO cells [6])	cell number after addition (24 hours) (CHO cells [6])	co-localization with Golgi marker BODIPY-TR-Ceramide [7]	cell number after addition (24 hours) relative to before addition (CHO cells [6]; listed as Acetyl-C16-ceramide-NBD)
	CCCCCCCCCCCCC/C=C/[C@@H](O)[C@H](CO)NC(=O)CCCCCNc1ccc([N+](=O)[O-])c2nonc12 [NBD-C6-ceramide]	30%	decreased by half	~90%	remains in the Golgi apparatus	the alteration of cell shapge (roundation) was observed	decreased with the lapse of time	attenuated with the lapse of time	≤ 24 h	77% and 77 ± 2%	9,690 ± 260 cells/well	co-localized with the BODIPY-TR-Ceramide	
≥ 70%	CCCCCCCCCCCCCCCC(=O)N[C@@H](COC(C)=O)[C@H](O)/C=C/CCCCCCCCCNc1ccc([N+](=O)[O-])c2nonc12 [compound 9, (2S,3R)-(E)-3-hydroxy-14-((7-nitrobenzo[c][1,2,5]oxadiazole-4-yl)amino)-2-palmitamide tetradec-4-en-1-yl acetate]	around 10%				the roundation was not observed	increased with the lapse of time	gradually increased with the lapse of time		159%	20,000 ± 4100 cells/well	co-localized with the BODIPY-TR-Ceramide	159 ± 33%
